Laboratory results: the NIST ThermoML archive (doi:10.1021/je4009987)
Numbers after ± are expanded uncertainties.

Experiment: mn = molality of the nth substance listed, in mol/kg
Conditions: 101 kPa, Liquid; for speed of sound: Sing-around technique in a fixed-path interferometer; for mass density: Vibrating tube method

CCOC(=O)CC(C)=O [ethyl 3-oxobutanoate] + O
Conditions	mass density, 288.15 K [kg/m3]	mass density, 293.15 K [kg/m3]	mass density, 298.15 K [kg/m3]	mass density, 303.15 K [kg/m3]	mass density, 308.15 K [kg/m3]	speed of sound, 288.15 K [m/s]	speed of sound, 293.15 K [m/s]	speed of sound, 298.15 K [m/s]	speed of sound, 303.15 K [m/s]	speed of sound, 308.15 K [m/s]
m1 = 0.076	1000.05 ± 2	999.128 ± 2	997.91 ± 2	996.474 ± 2	994.809 ± 2	1472.6 ± 1.3	1487.8 ± 1.3	1501.3 ± 1.3	1513 ± 1.3	1523.1 ± 1.3
m1 = 0.1625	1001.1 ± 2	1000.13 ± 2	998.838 ± 2	997.358 ± 2	995.64 ± 2	1479.2 ± 1.3	1493.6 ± 1.3	1506.4 ± 1.3	1517.4 ± 1.3	1526.9 ± 1.3
m1 = 0.2495	1002.14 ± 2	1001.1 ± 2	999.76 ± 2	998.22 ± 2	996.445 ± 2	1485.5 ± 1.3	1499.2 ± 1.3	1511.2 ± 1.3	1521.6 ± 1.3	1530.4 ± 1.3
m1 = 0.3767	1003.62 ± 2	1002.48 ± 2	1001.05 ± 2	999.44 ± 2	997.59 ± 2	1494.1 ± 1.3	1506.7 ± 1.3	1517.7 ± 1.3	1527.1 ± 1.3	1535 ± 1.3
m1 = 0.4725	1004.7 ± 2	1003.48 ± 2	1002 ± 2	1000.32 ± 2	998.41 ± 2	1500 ± 1.3	1511.7 ± 1.3	1522 ± 1.3	1530.8 ± 1.3	1538.1 ± 1.3
m1 = 0.5324	1005.38 ± 2	1004.1 ± 2	1002.58 ± 2	1000.86 ± 2	998.9 ± 2	1503.4 ± 1.3	1514.7 ± 1.3	1524.5 ± 1.3	1532.9 ± 1.3	1539.8 ± 1.3
m1 = 0.6848	1007.03 ± 2	1005.6 ± 2	1004 ± 2	1002.18 ± 2	1000.12 ± 2	1511.6 ± 1.3	1521.7 ± 1.3	1530.5 ± 1.3	1537.8 ± 1.3	1543.7 ± 1.3
m1 = 0.7843	1008.1 ± 2	1006.56 ± 2	1004.9 ± 2	1003.01 ± 2	1000.9 ± 2	1516.3 ± 1.3	1525.7 ± 1.3	1533.7 ± 1.3	1540.4 ± 1.3	1545.8 ± 1.3
m1 = 0.9019	1009.31 ± 2	1007.65 ± 2	1005.93 ± 2	1003.94 ± 2	1001.76 ± 2	1521.4 ± 1.3	1529.9 ± 1.3	1537.2 ± 1.3	1543.1 ± 1.3	1547.8 ± 1.3
